US20210206810A1, “Detection of Optimal Recombinants Using Fluorescent Protein Fusions” (priority 2019, published 2021)

Experiments:
[1] = test system: methicillin resistant Staphylococcus aureus (MRSA); settings: microbial species including MRSA; cited from earlier work
Micrococcus luteus = experiment: Determination of minimum inhibitory concentration (MIC); type: cell-based; settings: visual inspection after 24 hours at 37° C. in MHB; tested 0.25 to 32 μg/mL

Substance: epidermicin-N101
- cytotoxicity to microbial species [1]: highly cytotoxic
- minimum inhibitory concentration (growth of Micrococcus luteus) (Micrococcus luteus): 2 µg/mL
